Data published in patent US20230097253A1, “NOVEL QUINAZOLINE COMPOUND AS THERAPEUTIC AGENT FOR METABOLIC DISORDERS” (BIOWAY., INC, priority 2020, published 2023).

Columns and labels:
[1] = tested on: steatosis-induced Huh7 cells; assay: Fat globule reducing effect in steatosis-induced hepatocytes by Oil-Red-O staining; type: cell-based; conditions: 250 μM PA, 0.5, 2.5 and 10 μM, concentration dependent, FIG. 7
Experimental: According to an embodiment of the present invention, in order to confirm the effect of inhibiting the accumulation of triglycerides in steatosis-induced liver cells, the Huh7 cells were cultured in an incubator set at 37° C. with 95% humidity and 5% CO2.
Additionally, Huh7 cells were proliferated to a confluency of 80-90% on a plate using a growth medium (Dulbecco's modified Eagle's medium (DMEM) supplemented with 10% fetal bovine serum (FBS), 100 U/ml of penicillin, and 100 μg/ml of streptomycin), and then used for the experiment.
According to an embodiment of the present invention, in order to confirm the ability of BW-3290 to inhibit fat globule accumulation in steatosis-induced liver cells, the liver cells were treated with palmitic acid (PA) bound to 2% BSA at a concentration of 250 μM except for the control group to induce steatosis, and then fat globules were stained through Oil-Red-O staining.
First, liver cells were cultured to grow 80-90% confluency in a 12 well plate, and the test material were diluted in the culture medium that induced steatosis and the liver cells, except for the control group, were treated with 0.5 μM, 2.5 μM, and 10 μM of the test material.
Additionally, after removing the cell supernatant from the wells for Oil-Red-O staining, the washing process was performed twice with PBS. […]

[2] = tested on: steatosis-induced Huh-7 cells; assay: Expression of lipogenesis-related proteins (western blot); type: cell-based; conditions: Huh7 cells, 250 μM PA; 0.5, 2.5, 10 μM, 24 hours; FIG. 9-A
Experimental: To induce steatosis in Huh-7 cells in each well except for control cells, the Huh-7 cells were treated with PA bound to 2% BSA at a concentration of 250 μM except for the control, and the control cells were pretreated with 2% BSA without FA.
The cells in each well were treated with the compound of Chemical Formula 2 0.5 μM, 2.5 μM, and 10 μM and then cultured for 24 hours. The control cells and PA treated cells were treated with DMSO. All media were aspirated and the cells were gently washed 3 times with cold PBS.
A cold lysis buffer containing 150 mM sodium chloride (NaCl), 5 mM ethylenediaminetetraacetic acid (EDTA), pH 8.0, […] 4-(2-hydroxyethyl)-1-piperazineethanesulfonic acid (HEPES), 1% nonylphenoxypolyethoxylethanol (NP-40), 2 μg/mL aprotinin, 1 μM pepstatin A, 10 μM leupeptin, 1 mM sodium fluoride (NaF), 0.2 mM sodium orthovanadate ([…]), and 1 μM phenylmethylsulfonyl fluoride (PMSF) was added thereto.
A whole cell lysate was collected and gently pipetted at least 10 times to ensure complete lysis. The sample was incubated on ice for 20 minutes and centrifuged 4° C. at 13,000 rpm, for 20 minutes. […]
Images were acquired using an ImageQuant LAS 3000 (Fujifilm, Tokyo, Japan). Data were analyzed.

DIAMOND™ mouse model [3] = assay: In-vivo activity in DIAMOND mouse model: body weight, liver weight, liver function enzymes; conditions: DIAMOND mice, 16 mg/kg oral once daily for 8 weeks
Experimental: (§1) The DIAMOND™ mouse model, an animal model prepared using a Western diet and sugar water, was used. The DIAMOND™ mice were induced with WDSW for 14 weeks, and 12 mice were used for the control group and 12 mice for the BW-3290 treatment group, and BW-3290 was orally administered at 16 mg/kg once daily for 8 weeks. An autopsy was performed at week 22, and blood collection and tissue storage were performed for the individuals in each group.

DIAMOND™ mouse model [4] = assay: Efficacy in improving liver fibrosis (Sirius Red and Trichrome staining of liver tissue); type: in vivo; conditions: DIAMOND mice liver tissue, 16 mg/kg oral once daily for 8 weeks, compared to control group (VC)
Experimental: as §1
Staining was performed by Sirius Red staining and Trichrome (Masson's trichrome) staining, which are the staining methods that can confirm fibrosis, was stained using the liver tissue obtained after autopsy.

[5] = week 22, compared to control group (VC), FIG. 17
[6] = vs control group (VC), statistical significance

CC(C)C(Nc1ncnc2nc[nH]c12)c1nc2cccc(Cl)c2c(=O)n1-c1ccccc1 (centres unmarked) [BW-3290, 2-(1-((7H-purin-6-yl)amino)-2-methylpropyl)-5-chloro-3-phenylquinazolin-4(3H)-one]
fat globule staining (Oil-Red-O) compared to PA [1]: lower level of fat globule staining compared to PA
level of FAS protein [2]: decreased in a concentration-dependent manner
level of SREBP1 protein [2]: decreased in a concentration-dependent manner
liver/body weight ratio (DIAMOND™ mouse model [3]; week 22): improve
body weight (DIAMOND™ mouse model [3]; [5]): decreased
liver weight (DIAMOND™ mouse model [3]; [5]): decreased
alkaline phosphatase (ALP) level (DIAMOND™ mouse model [3]; vs control group (VC)): decreased
alanine aminotransferase (ALT) level (DIAMOND™ mouse model [3]; [6]): decreased
aspartate aminotransferase (AST) level (DIAMOND™ mouse model [3]; [6]): decreased
fiberized portions stained in blue by Trichrome staining (DIAMOND™ mouse model [4]): reduced
collagen and amyloid tissues stained in red by Sirius Red staining (DIAMOND™ mouse model [4]; FIGS. 19 and 22): decreased
